Results as given in US6642216B2, “Isoprenoid pathway inhibitors for stimulating bone growth” (ZymoGenetics Corporation, priority 1996, dated 2003).

Test system: BMP-2 promoter
Assay: ABA assay: BMP-2 promoter-luciferase reporter in 2T3-BMP-2-LUC osteoblast cells
Format: cell-based, mouse
Experimental: These transformed cells are then evaluated for the production of the reporter gene product; compounds that activate the BMP promoter will drive production of the reporter protein, which can be readily assayed.
The cells were cultured using α-MEM, 10% FCS with 1% penicillin/streptomycin and 1% glutamine (“plating medium”), and were split 1:5 once per week. For the assay, the cells were resuspended in a plating medium containing 4% FCS, plated in microtiter plates at a concentration of 5×10^3 cells (in 50 μl)/well, and incubated for 24 hours at 37° C. in 5% CO2. To initiate the assay, 50 μl of the test compound or the control in DMSO was added at 2× concentration to each well, so that the final volume was 100 μl. The final serum concentration was 2% FCS, and the final DMSO concentration was 1%.
The treated cells were incubated for 24 hours at 37° C. and 5% CO2. The medium was then removed, and the cells were rinsed three times with PBS. After removal of excess PBS, 25 μl of 1× cell culture lysing reagent (Promega #E153A) was added to each well and incubated for at least ten minutes. Optionally, the plates/samples could be frozen at this point. To each well was added 50 μl of luciferase substrate (Promega #E152A; 10 ml Promega luciferase assay buffer per 7 mg Promega luciferase assay substrate). Luminescence was measured on an automated 96-well luminometer, and was expressed as either picograms of luciferase activity per well or as picograms of luciferase activity per microgram of protein.
Alternatively, the reactivity of a compound to be tested can be compared directly to a negative control containing no compound.

[1] = Experiment 3, 8.88178E μg/ml (0.002193 μM lovastatin, 0.002087 μM fluvastatin)

Row | Compound | % 59-0008 Response (Experiment 1, 0.195312 μg/ml) | Fold increase over negative control (Experiment 1, 0.195312 μg/ml) | % 59-0008 Response (Experiment 1, 0.390625 μg/ml) | Fold increase over negative control (Experiment 1, 0.390625 μg/ml) | % 59-0008 Response (Experiment 1, 0.78125 μg/ml) | Fold increase over negative control (Experiment 1, 0.78125 μg/ml) | % 59-0008 Response (Experiment 1, 1.5625 μg/ml) | Fold increase over negative control (Experiment 1, 1.5625 μg/ml) | % 59-0008 Response (Experiment 1, 3.125 μg/ml) | Fold increase over negative control (Experiment 1, 3.125 μg/ml) | % 59-0008 Response (Experiment 1, 6.25 μg/ml) | Fold increase over negative control (Experiment 1, 6.25 μg/ml) | % 59-0008 Response (Experiment 1, 12.5 μg/ml) | Fold increase over negative control (Experiment 1, 12.5 μg/ml) | % 59-0008 Response (Experiment 1, 25 μg/ml) | Fold increase over negative control (Experiment 1, 25 μg/ml) | % 59-0008 Response (Experiment 1, 50 μg/ml) | Fold increase over negative control (Experiment 1, 50 μg/ml) | % 59-0008 Response (Experiment 1, 200 μg/ml) | Fold increase over negative control (Experiment 1, 200 μg/ml) | also measured
1 | c1ccc(N=NC2=NNc3ccccc3S2)cc1 [59-0008, 3-phenylazo-1H-4,1,2-benzothiadiazine] | – | – | – | – | – | – | – | – | – | – | – | – | – | – | – | – | – | – | – | – | concentration at which reactivity is maximal: 3 to 10 µM
2 | CC(C)n1c(/C=C/C(O)CC(O)CC(=O)O)c(-c2ccc(F)cc2)c2ccccc21 (centres unmarked) [Fluvastatin, fluvastatin] | 36.820% | 2.630 fold | 28.080% | 2.243 fold | 75.160% | 4.328 fold | 117.980% | 6.223 fold | 173.280% | 8.672 fold | 165.630% | 8.333 fold | 164.450% | 8.281 fold | 137.500% | 7.088 fold | −22.660% | −0.003 fold | −22.700% | −0.005 fold | % 59-0008 Response (Experiment 3, 0.002842 μg/ml): −3.26%; Fold increase over negative control (Experiment 3, 0.002842 μg/ml): 0.83 fold; % 59-0008 Response (Experiment 3, 0.009094 μg/ml): −3.84%; Fold increase over negative control (Experiment 3, 0.009094 μg/ml): 0.8 fold; % 59-0008 Response (Experiment 3, 0.029103 μg/ml): −5.18%; Fold increase over negative control (Experiment 3, 0.029103 μg/ml): 0.73 fold; % 59-0008 Response (Experiment 3, 0.093132 μg/ml): −2.11%; Fold increase over negative control (Experiment 3, 0.093132 μg/ml): 0.89 fold; % 59-0008 Response (Experiment 3, 0.298023 μg/ml): −3.26%; Fold increase over negative control (Experiment 3, 0.298023 μg/ml): 0.83 fold; % 59-0008 Response (Experiment 3, 0.953674 μg/ml): 2.3%; Fold increase over negative control (Experiment 3, 0.953674 μg/ml): 1.12 fold; % 59-0008 Response (Experiment 3, 3.051757 μg/ml): 22.66%; Fold increase over negative control (Experiment 3, 3.051757 μg/ml): 2.18 fold; % 59-0008 Response (Experiment 3, 9.765625 μg/ml): 103.7%; Fold increase over negative control (Experiment 3, 9.765625 μg/ml): 6.4 fold; % 59-0008 Response (Experiment 3, 31.25 μg/ml): 122.53%; Fold increase over negative control (Experiment 3, 31.25 μg/ml): 7.38 fold; % 59-0008 Response [1]: −0.19%; Fold increase over negative control [1]: 0.99 fold
3 | CC[C@H](C)C(=O)O[C@H]1C[C@H](O)C=C2C=C[C@H](C)[C@H](CC[C@@H](O)C[C@@H](O)CC(=O)O)[C@H]21 [Pravastatin, pravastatin] | −4.390% | 0.807 fold | −1.290% | 0.943 fold | −1.980% | 0.913 fold | −1.120% | 0.951 fold | 0.380% | 1.017 fold | 0.920% | 1.040 fold | 1.110% | 1.049 fold | 3.520% | 1.155 fold | 5.000% | 1.220 fold | 11.670% | 1.513 fold | % 59-0008 Response (Experiment 1, 100 μg/ml): 7.620%; Fold increase over negative control (Experiment 1, 100 μg/ml): 1.335 fold
4 | CC(O)(CCO)CC(=O)O (centres unmarked) [mevalonate] | – | – | – | – | – | – | – | – | – | – | – | – | – | – | – | – | – | – | – | – | effect of mevalonic acid on primary screen activity of 59-0008: no effect; effect of added mevalonate on the activity of mevastatin in the ABA assay (mevalonate 25-800 μM, mevastatin 100, 25, or 6.25 μM): inhibits the activity of mevastatin
